Measured values reported in patent publication US6723702B2, “Use of relaxin treat diseases related to vasoconstriction” (RAS Medical, Inc., priority 2000, dated 2004).

Assays:
conscious rats = assay: Acute infusion of L-NAME during chronic infusion of purified porcine RLX; type: in vivo, rat; conditions: RLX 4 μg/hour s.c. day 5
Procedure: At least 7 days after the implantation of vascular and bladder catheters, osmotic minipumps containing either porcine RLX (4 μg/hour) or vehicle (Ringer's solution) were implanted in intact, female rats (n=7 and 6 rats, respectively). Renal function and MAP were measured on day 5 of relaxin infusion (three 30-minute urine and midpoint blood collections). Next, an infusion of L-NAME (2 μg/minute, a substrate competitive inhibitor of NO synthase) was administered intravenously (i.v.) by infusion pump (Model 200, KD Scientific, Boston, Mass.). Four 1-hour urine collections with midpoint blood samples were collected for the assessment of GFR, ERPF, and ERVR during the L-NAME administration. Identical procedures were performed on additional animals chronically administered porcine RLX (n=5) or vehicle (n=5), except that ANG II (3 ng/minute) was infused rather than L-NAME. Finally, another four, age-matched control rats were administered Ringer's solution instead of either L-NAME or ANG II on day 5 of porcine RLX infusion.
MAP, GFR, ERPF, and ERVR were measured at time zero (baseline), and at 60, 120, 180, and 240 minutes after administering L-NAME and either RLX or vehicle alone. Values represent the mean±SEM. L-NAME (Nω-nitro-L-arginine methyl ester) was infused at 2 μg/minute intravenously, and relaxin was administered at 4 μg/hour by osmotic minipump subcutaneously. There were 7 and 6 rats, respectively, in the RLX and vehicle groups. An asterisk denotes p<0.05; the symbol H denotes p<0.05 for RLX vs. vehicle.

[1] = test system: Rat aortic adventitial fibroblasts; assay: Collagen and fibronectin expression by adventitial fibroblasts; type: cell-based; conditions: rhRlx 10 ng/ml
Procedure: Aortic adventitial fibroblasts from normal adult Sprague/Dawley rats were explanted by carefully dissecting the adventitia away from the media and culturing 1 mm^3 pieces in Dulbecco's modified Eagles Medium (DMEM), plus 10% bovine fetal calf serum. When cultures were confluent, fibroblasts were dispersed with trypsin and passaged once prior to use in experiments. Fibroblasts were seeded at 10^5 cells/cm^2 in DMEM+10% FBS in 48-well plates for experiments and assayed for collagen and fibronectin expression, as previously described (Unemori et al. (1996) J. Clin. Invest. 98:2739-2745). […] Half of the cultures were also treated simultaneously with 10 ng/ml of rhRlx. Proteins were biosynthetically labeled with ^3H-proline (25 μCi/ml) (Amersham Corp., Arlington Heights, Ill.), in the presence of ascorbate (50 μg/ml) and β-aminopropionitrile (80 μg/ml), and conditioned media collected 24 hours later. Media were electrophoresed on SDS-PAGE, and the density of collagen and fibronectin bands was determined by densitometric scanning using a digital imaging system (Alpha Innotech Corp, San Leandro, Calif.).

[2] = Relaxin ELISA in serum (Example 5); type: in vivo, rat; conditions: day 10
From the text: The pulmonary artery trunk, right and left extrapulmonary branches were removed en bloc, cleaned of surrounding tissue, and weighed. The left lung was and excised and the entire hilar artery dissected from parenchyma and weighed (Tozzi et al. (1994) Am. J. Respir. Crit. Care Med. 149:1316-1326). Segments were hydrolyzed, and total hydroxyproline and protein determined (Poiani et al. (1990) Circ. Res. 66:968-978). Approximately 3 cc of whole blood was centrifuged, serum aspirated, and sample frozen at −20° C. for determination of rRlx levels by ELISA assay.
Levels of relaxin in serum were measured in a quantitative sandwich immunoassay, as previously described (Unemori et al. (1996) J. Clin. Invest. 98:2739-2745).

[3] = test system: human VEGF165, VEGF121, bFGF and HGF transcripts in human cardiac cells; assay: Human cardiac cells: quantitative RT-PCR after relaxin treatment in vitro; type: cell-based
From the text: Oligonucleotides were designed to rat or human bFGF, human VEGF165 amino acid or 121 amino acid isoforms, and their respective rat homologues (VEGF164 and VEGF120), and human HGF (for use with the PE Applied Biosystems “GeneAmp PCR System 9600”). Rat and human GAPDH primers and probes were purchased from BioSource International Inc. and PE Applied Biosystems, respectively. Tissue samples and monolayer cells were suspended in RNA STAT-60 (Tel-Test, Inc., Friendswood, Tex.) and processed following vendor instructions. Reverse transcription-polymerase chain reaction (RT-PCR) was performed using either rat or human total RNA as template. 150 ng of total RNA was used for the analysis of VEGF, bFGF and HGF mRNA expression; 10 ng of total RNA was used for GAPDH mRNA expression. Reverse transcription-polymerase chain reaction (RT-PCR) reagents were purchased from PE Biosystems (Foster City, Calif.).
To determine if the effects of relaxin observed in the rat were also seen in human cells, total RNA from cardiac cells was extracted following treatment of cells with 1, 10, and 100 ng/ml relaxin for 24 hours. Human cardiac cells were cultured for 24 hours either without or with relaxin (1-100 ng/ml). Untreated cells were incubated for the same 24 hour period under hypoxic (2% O2) conditions. Using 150 ng of total RNA for human VEGF and bFGF transcripts and 10 ng of total RNA for GAPDH transcripts, primer/probe sets were used to generate RT-PCR products for human VEGF 165aa and 121aa isoforns and human bFGF. Data were analyzed using Sequence Detector v1.6.3 software (Applied Biosystems/PE). VEGF and bFGF expression levels are graphed relative to GAPDH transcript levels. Data are shown as means±SEM, where n=3 per treatment group; *p<0.05; Student-Newman-Keuls test. […] Absolute baseline levels of bFGF mRNA transcripts expressed by these cells were approximately 2-fold greater than those of either the VEGF121 or the VEGF165 isoforms. Total RNA from cells incubated under hypoxic conditions was analyzed as a positive control for the stimulation of VEGF isoforms. As predicted, mRNA transcript levels for both VEGF isoforms increased 220% over untreated control levels following 24 hr exposure to hypoxia, as shown in FIG. 6. bFGF expression was not induced by hypoxia. […] Relaxin had no effect on cellular proliferation, as assessed by ^3H-thymidine incorporation, on cellular morphology, or on desmin or vimentin staining patterns.

[4] = L-NAME 2 μg/minute i.v., 60 min
[5] = L-NAME 2 μg/minute i.v., 120 min
[6] = L-NAME 2 μg/minute i.v., 180 min
[7] = L-NAME 2 μg/minute i.v., 240 min

Porcine RLX: lyophilized, purified porcine relaxin (Sherwood and O'Byrne 1974), dissolved in Ringer's solution
ERPF (conscious rats; Baseline before L-NAME): 10245
ERVR (conscious rats; Baseline before L-NAME): 6.96
GFR (conscious rats; Baseline before L-NAME): 3050
MAP (mean arterial pressure) (conscious rats; Baseline before L-NAME): 120
ERPF (conscious rats; [4]): 7520
ERVR (conscious rats; [4]): 11.00
GFR (conscious rats; [4]): 2776
MAP (mean arterial pressure) (conscious rats; [4]): 135
ERPF (conscious rats; [5]): 7030
ERVR (conscious rats; [5]): 11.87
GFR (conscious rats; [5]): 2653
MAP (mean arterial pressure) (conscious rats; [5]): 136
ERPF (conscious rats; [6]): 6530
ERVR (conscious rats; [6]): 12.92
GFR (conscious rats; [6]): 2498
MAP (mean arterial pressure) (conscious rats; [6]): 136
ERPF (conscious rats; [7]): 5973
ERVR (conscious rats; [7]): 14.13
GFR (conscious rats; [7]): 2392
MAP (mean arterial pressure) (conscious rats; [7]): 139

rhRLX: recombinant human relaxin, identical in amino acid sequence to the product of the human H2 gene; A chain of 24, B chain of 29 amino acids
decrease of TGF-β-induced fibronectin over-expression [1]: 28±6%
inhibition of TGF-β-induced collagen over-expression [1]: 21±5%
rRlx serum levels ([2]; 1 mg-air (low rhRlx-air)): 2.9 ± 1.0 ng/mL
rRlx serum levels ([2]; 1 mg-hyp (low rhRlx-hyp)): 3.2 ± 0.4 ng/mL
rRlx serum levels ([2]; 5 mg-air (hi rhRlx-air)): 9.9 ± 2.8 ng/mL
rRlx serum levels ([2]; 5 mg-hyp (hi rhRlx-hyp)): 11.5 ± 2.5 ng/mL
Basic FGF expression, maximum elevation over baseline ([3]; 100 ng/ml, 24 hours): 2.2 fold
VEGF121 mRNA, maximum increase in expression over untreated controls ([3]; 100 ng/ml, 24 hours): 3 fold
VEGF165 mRNA, maximum increase in expression over untreated controls ([3]; 100 ng/ml, 24 hours): 2.3 fold
Transcripts for human HGF ([3]; untreated vs relaxin treated cells): no difference in expression
